# Experiments:
# Type in all cases: in vivo
# [1] = test system: Tetranychus urticae; experiment: Tetranychus test (OP-resistant/spray treatment) on bean leaf disks
# Method: (§1) To produce a suitable preparation of active compound, 1 part by weight of active compound is mixed with the stated amounts of solvent and emulsifier, and the concentrate is diluted with emulsifier-containing water to the desired concentration.
# Disks of bean leaves (Phaseolus vulgaris) which are infested by all stages of the greenhouse red spider mite (Tetranychus urticae) are sprayed with an active compound preparation of the desired concentration.
# After the desired period of time, the activity in % is determined. 100% means that all spider mites have been killed; 0% means that none of the spider mites have been killed.
# [2] = test system: Aphis gossypii; experiment: Aphis gossypii test (dipped cotton leaves)
# Method: as §1
# Cotton leaves (Gossypium herbaceum) which are heavily infested by the cotton aphid (Aphis gossypii) are treated by being dipped into the active compound preparation of the desired concentration.
# (§2) After the desired period of time, the kill in % is determined. 100% means that all aphids have been killed; 0% means that none of the aphids have been killed. The kill rates determined are entered into Colby's formula.
# [3] = test system: Myzus persicae; experiment: Myzus persicae test (spray on infested cabbage leaves)
# Method: (§3) To produce a suitable preparation of active compound, 1 part by weight of active compound is mixed with the stated amounts of solvents and emulsifier, and the concentrate is diluted with emulsifier-containing water to the desired concentration.
# Cabbage leaves (Brassica oleracea) which are heavily infested by the Green peach aphid (Myzus persicae), are treated by spraying with the active compound preparation of the desired concentration.
# as §2
# [4] = test system: Phaedon cochleariae; experiment: Phaedon cochleariae larvae test (sprayed cabbage leaves)
# Method: as §3
# Cabbage leaves (Brassica oleracea) are treated by spraying with the active compound preparation of the desired concentration and are populated with larvae of the mustard beetle (Phaedon cochleariae) while the leaves are still moist.
# After the desired period of time, the kill in % is determined. 100% means that all beetle larvae have been killed; 0% means that none of the beetle larvae have been killed. The kill rates determined are entered into Colby's formula.
# [5] = test system: Spodoptera frugiperda; experiment: Spodoptera frugiperda larvae test (sprayed cabbage leaves)
# Method: as §3
# Cabbage leaves (Brassica oleracea) are treated by spraying with the active compound preparation of the desired concentration and are populated with larvae of the armyworm (Spodoptera frugiperda) while the leaves are still moist.
# After the desired period of time, the kill in % is determined. 100% means that all caterpillars have been killed; 0% means that none of the caterpillars have been killed. The kill rates determined are entered into Colby's formula.
structure (smiles),measurement,setting,value
"CC1(C)C(/C=C(\Cl)C(F)(F)F)C1C(=O)OC(C#N)c1cccc(Oc2ccccc2)c1 [L-cyhalothrin, lambda-cyhalothrin]",Kill in % after 6d,[1]; 0.032 g/ha,0%
same,Kill in % after 1d,[2]; 0.16 ppm,20%
same,Kill in % after 1d,[3]; 0.16 g/ha,10%
CC1(C)C(C=C(Cl)Cl)C1C(=O)OC(C#N)c1cccc(Oc2ccccc2)c1 (stereo not drawn) [alpha-cypermethrin],Kill in % after 6d,[4]; 0.8 g/ha,67%
Cc1c(COC(=O)C2C(/C=C(\Cl)C(F)(F)F)C2(C)C)cccc1-c1ccccc1 (stereo not shown) [bifenthrin],Kill in % after 1d,[3]; 0.0064 g/ha,0%
same,Kill in % after 6d,[5]; 0.8 g/ha,0%
CO[C@H]1CC[C@]2(CC1)NC(=O)C(c1cc(C)ccc1C)=C2O [compound (I)],Kill in % after 1d,[2]; 4 ppm,0%
CCOC(=O)OC1=C(c2cc(C)ccc2C)C(=O)N[C@]12CC[C@@H](OC)CC2 [compound (II)],Kill in % after 6d,[1]; 0.8 g/ha,50%
same,Kill in % after 2d,[1]; 4 g/ha,50%
same,Kill in % after 6d,[1]; 4 g/ha,90%
same,Kill in % after 2d,[1]; 100 g/ha,70%
same,Kill in % after 6d,[4]; 4 g/ha,0%
same,Kill in % after 6d,[4]; 20 g/ha,0%
same,Kill in % after 6d,[4]; 100 g/ha,50%
same,Kill in % after 1d,[3]; 0.8 g/ha,20%
same,Kill in % after 1d,[3]; 20 g/ha,0%
same,Kill in % after 6d,[5]; 20 g/ha,17%
same,Kill in % after 6d,[5]; 100 g/ha,67%
CCOC(=O)OC1=C(c2cc(C)ccc2C)C(=O)NC12CCC(OC)CC2 (stereo not shown) [compound (II-a)],Kill in % after 6d,[1]; 0.8 g/ha,60%
same,Kill in % after 2d,[1]; 4 g/ha,30%
same,Kill in % after 6d,[1]; 4 g/ha,90%
same,Kill in % after 2d,[1]; 100 g/ha,40%
same,Kill in % after 6d,[4]; 4 g/ha,0%
same,Kill in % after 6d,[4]; 20 g/ha,0%
same,Kill in % after 6d,[4]; 100 g/ha,83%
same,Kill in % after 1d,[3]; 0.8 g/ha,20%
same,Kill in % after 1d,[3]; 20 g/ha,0%
same,Kill in % after 6d,[5]; 20 g/ha,17%
same,Kill in % after 6d,[5]; 100 g/ha,50%
COC1CCC2(CC1)NC(=O)C(c1cc(C)ccc1C)=C2O (stereo not shown) [compound (Ia)],Kill in % after 1d,[2]; 4 ppm,0%
CC1(C)C(C=C(Cl)Cl)C1C(=O)OC(C#N)c1cccc(Oc2ccccc2)c1 (stereo not shown) [cypermethrin],Kill in % after 6d,[4]; 0.8 g/ha,17%
same,Kill in % after 6d,[5]; 0.8 g/ha,0%
CC1(C)[C@H](C(=O)O[C@H](C#N)c2cccc(Oc3ccccc3)c2)[C@@H]1C=C(Br)Br [deltamethrin],Kill in % after 2d,[1]; 0.032 g/ha,10%
CC1(C)[C@H](/C=C(\Cl)C(F)(F)F)[C@@H]1C(=O)O[C@H](C#N)c1cccc(Oc2ccccc2)c1 [gamma-cyhalothrin],Kill in % after 1d,[3]; 0.0064 g/ha,0%
CC1(C)C(C=C(Cl)Cl)C1C(=O)OC(C#N)c1cccc(Oc2ccccc2)c1 (stereo not shown) [zeta-cypermethrin],Kill in % after 6d,[4]; 0.16 g/ha,0%
"CC1(C)C(C=C(Cl)Cl)C1C(=O)OC(C#N)c1ccc(F)c(Oc2ccccc2)c1 (stereo not drawn) [β-cyfluthrin, betacyfluthrin]",Kill in % after 6d,[1]; 0.0064 g/ha,0%
same,Kill in % after 1d,[3]; 0.0064 g/ha,0%

# Reference: patent US20090281157A1, “Active Ingredient Combinations With Insecticidal and Acaricidal Properties” (Bayer Cropscience AG, priority 2006, published 2009)
